Where a name gives a salt, the structure may show the parent alone.

For the assay, the target named is T1, rh beta tryptase (Homo sapiens, UniProt Q15661).
T1 construct: purchased Promega
T1 sequence (Q15661 31-275): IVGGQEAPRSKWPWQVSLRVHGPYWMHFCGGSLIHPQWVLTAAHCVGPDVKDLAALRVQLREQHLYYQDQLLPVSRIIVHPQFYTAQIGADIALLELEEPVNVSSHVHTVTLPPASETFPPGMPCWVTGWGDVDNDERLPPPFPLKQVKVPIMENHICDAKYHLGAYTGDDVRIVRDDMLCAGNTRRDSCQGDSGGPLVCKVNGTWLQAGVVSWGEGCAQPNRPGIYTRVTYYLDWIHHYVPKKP
The assay is described as follows: tryptase inhibition in vitro test (cleavage of N-p-tosyl-Gly-Pro-Lys-para-nitroaniline, p-nitroaniline measured at 405 nm). The settings on record: rh beta tryptase 0.91 U/ml, substrate 0.6 mM, Tris HCl buffer with calcium and heparin, pH 7.4, 37° C., 5 minutes incubation; read-out: Tryptase-inhibiting activity. It is filed as biochemical. On the procedure:
The compounds according to the invention are characterised by their tryptase-inhibiting activity. This ability to inhibit tryptase was investigated using the test described below.
The measurement is carried out in Tris HCl buffer (100 mM), which additionally contains calcium (5 mM) and heparin ([…]), at pH 7.4. The standard used is rh beta tryptase which may be obtained commercially from Promega, for example. The substrate used is N-p-tosyl-Gly-Pro-Lys-para-nitroaniline in a concentration of 0.6 mM. The substrate is digested with tryptase to form p-nitroaniline which can be measured at 405 nm. Usually, an incubation period of 5 minutes and an incubation temperature of 37° C. are chosen. The enzyme activity used is 0.91 U/ml. The measurements are carried out in an Autoanalyser (Cobas Bio) made by Hofmann LaRoche. The potential inhibitory substances are used in concentrations of 10 μM in the screening, the inhibition of the tryptase being given in percent. The IC50 is determined at over 70% inhibition (concentration at which 50% of the enzyme activity is inhibited). After 5 minutes' pre-incubation of the potential inhibitory substances, the substrate is added to start the reaction, the formation of p-nitroaniline being taken as a measurement of the enzyme activity after 5 minutes, after testing the linearity.
Regarding `CCOC(=O)CCN(C(=O)CN1CCC(Nc2ccccn2)CC1)c1ccc2c(c1)nc(CCc1ccc(C(=N)N)cc1)n2C` [Example 53, N-{2-[2-(4-Amidinophenyl)-ethyl]-1-methyl-benzimidazol-5-yl}-N-[ethyl ethanecarboxylate]-2-[4-(2-pyridylamino)-piperid-1-yl]-acetamide, dihydrochloride], the IC50 lay within 0.004 to 0.03 µM.
For the compound `Cn1c(CCc2ccc(C(=N)N)cc2)nc2cc(N(Cc3cccc(N)c3)C(=O)CN3CCC(Nc4ccccn4)CC3)ccc21` [Example 55, N-{2-[2-(4-Amidinophenyl)-ethyl]-1-methyl-benzimidazol-5-yl}-N-[3-aminophenyl-methyl]-2-[4-(2-pyridylamino)-piperid-1-yl]-acetamide, dihydrochloride], the IC50 was in the range of 0.004 to 0.03 µM.
The same measure for `Cn1c(CCc2ccc(C(=N)N)cc2)nc2cc(N(Cc3ccccc3)C(=O)CN3CCC(Nc4ccccn4)CC3)ccc21` [Example 57, N-{2-[2-(4-Amidinophenyl)-ethyl]-1-methyl-benzimidazol-5-yl}-N-[benzyl]-2-[4-(2-pyridylamino)-piperid-1-yl]-acetamide, dihydrochloride]: 0.004 to 0.03 µM.
For the compound `Cn1c(CCc2ccc(C(=N)N)cc2)nc2cc(N(Cc3ccccc3)C(=O)CN3CCC(Nc4ccccc4Cl)CC3)ccc21` [Example 58, N-{2-[2-(4-Amidinophenyl)-ethyl]-1-methyl-benzimidazol-5-yl}-N-benzyl-2-[4-(2-chlorophenylamino)-piperid-1-yl]-acetamide, dihydrochloride], the IC50 fell in the range of 0.0005 to 0.003 µM.
Turning to `Cn1c(CCc2ccc(C(=N)N)cc2)nc2cc(N(Cc3ccccc3)C(=O)CN3CCC(Nc4ccccc4F)CC3)ccc21` [Example 59, N-{2-[2-(4-Amidinophenyl)-ethyl]-1-methyl-benzimidazol-5-yl}-N-benzyl-2-[4-(2-fluorophenylamino)-piperid-1-yl]-acetamide, dihydrochloride], the IC50 was 0.0005 to 0.003 µM.
To `Cc1ccc(NC2CCN(CC(=O)N(C)c3ccc4c(c3)nc(CCc3ccc(C(=N)N)cc3)n4C)CC2)c(Cl)c1` [Example 61, N-{2-[2-(4-Amidinophenyl)-ethyl]-1-methyl-benzimidazol-5-yl}-N-methyl-2-[4-(2-chloro-4-methylamino)-piperid-1-yl]-acetamide, dihydrochloride] belongs 0.0005 to 0.003 µM; to `CN(C(=O)CN1CCC(Nc2ccc(Br)cc2Cl)CC1)c1ccc2c(c1)nc(CCc1ccc(C(=N)N)cc1)n2C` [Example 62, N-{2-[2-(4-Amidinophenyl)-ethyl]-1-methyl-benzimidazol-5-yl}-N-methyl-2-[4-(2-chloro-4-bromoamino)-piperid-1-yl]-acetamide, dihydrochloride], 0.0005 to 0.003 µM.
To `Cc1ccccc1NC1CCN(CC(=O)N(C)c2ccc3c(c2)nc(CCc2ccc(C(=N)N)cc2)n3C)CC1` [Example 63, dihydrochloride] belongs 0.004 to 0.03 µM.
Turning to `CN(C(=O)CN1CCC(Nc2ccccc2C(C)(C)C)CC1)c1ccc2c(c1)nc(CCc1ccc(C(=N)N)cc1)n2C` [Example 64, dihydrochloride], the IC50 fell in the range of 0.004 to 0.03 µM.
As to `CN(C(=O)CN1CCC(Nc2ccc(Cl)cc2Br)CC1)c1ccc2c(c1)nc(CCc1ccc(C(=N)N)cc1)n2C` [Example 65, N-{2-[2-(4-Amidinophenyl)-ethyl]-1-methyl-benzimidazol-5-yl}-N-methyl-2-[4-(2-bromo-4-chloroamino)-piperid-1-yl]-acetamide, dihydrochloride], the IC50 fell in the range of 0.0005 to 0.003 µM.
The same measure for `Cc1ccc(NC2CCN(CC(=O)N(C)c3ccc4c(c3)nc(CCc3ccc(C(=N)N)cc3)n4C)CC2)c(Br)c1` [Example 66, N-{2-[2-(4-Amidinophenyl)-ethyl]-1-methyl-benzimidazol-5-yl}-N-methyl-2-[4-(2-bromo-4-methylamino)-piperid-1-yl]-acetamide, dihydrochloride]: 0.0005 to 0.003 µM; for `CN(C(=O)CN1CCC(Nc2ccc(C(F)(F)F)cc2Br)CC1)c1ccc2c(c1)nc(CCc1ccc(C(=N)N)cc1)n2C` [Example 67, N-{2-[2-(4-Amidinophenyl)-ethyl]-1-methyl-benzimidazol-5-yl}-N-methyl-2-[4-(2-bromo-4-trifluoromethylamino)-piperid-1-yl]-acetamide, dihydrochloride]: 0.004 to 0.03 µM.
To `CC(C)c1ccc(NC2CCN(CC(=O)N(C)c3ccc4c(c3)nc(CCc3ccc(C(=N)N)cc3)n4C)CC2)c(Br)c1` [Example 68, N-{2-[2-(4-Amidinophenyl)-ethyl]-1-methyl-benzimidazol-5-yl}-N-methyl-2-[4-(2-bromo-4-isopropylamino)-piperid-1-yl]-acetamide, dihydrochloride] belongs 0.031 to 1 µM.
The same measure for `CN(C(=O)CN1CCC(Nc2ccc(C(C)(C)C)cc2Cl)CC1)c1ccc2c(c1)nc(CCc1ccc(C(=N)N)cc1)n2C` [Example 69, N-{2-[2-(4-Amidinophenyl)-ethyl]-1-methyl-benzimidazol-5-yl}-N-methyl-2-[4-(2-chloro-4-tert.butylamino)-piperid-1-yl]-acetamide, dihydrochloride]: 0.031 to 1 µM.
Regarding `Cn1c(CCc2ccc(C(=N)N)cc2)nc2cc(N(Cc3cccc4ccccc34)C(=O)Nc3ccccc3)ccc21` [Example 72, N-{2-[2-(4-Amidinophenyl)-ethyl]-1-methyl-benzimidazol-5-yl}-N-[naphth-1-ylmethyl]-N′-phenyl-urea, hydrochloride], the IC50 was in the range of 0.031 to 1 µM.
The same measure for `COc1cccc(NC(=O)N(Cc2cccc3ccccc23)c2ccc3c(c2)nc(CCc2ccc(C(=N)N)cc2)n3C)c1` [Example 73, N-{2-[2-(4-Amidinophenyl)-ethyl]-1-methyl-benzimidazol-5-yl}-N-[naphth-1-ylmethyl]-N′-(3-methoxy)-phenyl, hydrochloride]: 0.031 to 1 µM; for `Cn1c(CCc2ccc(C(=N)N)cc2)nc2cc(N(Cc3cccc4ccccc34)C(=O)Nc3cccc(Cl)c3)ccc21` [Example 74, N-{2-[2-(4-Amidinophenyl)-ethyl]-1-methyl-benzimidazol-5-yl}-N-[naphth-1-ylmethyl]-N′-(3-chloro)-phenyl, hydrochloride]: 0.031 to 1 µM; for `Cn1c(CCc2ccc(C(=N)N)cc2)nc2cc(N(Cc3cccc4ccccc34)C(=O)Nc3cccc4ccccc34)ccc21` [Example 75, N-{2-[2-(4-Amidinophenyl)-ethyl]-1-methyl-benzimidazol-5-yl}-N-[naphth-1-ylmethyl]-N′-(1-naphthyl)-urea, hydrochloride]: 0.004 to 0.03 µM.
To `Cn1c(CCc2ccc(C(=N)N)cc2)nc2cc(N(Cc3cccc4ccccc34)C(=O)NC3CCC(Nc4ccccn4)CC3)ccc21` (centres unmarked) [Example 76, N-{2-[2-(4-Amidinophenyl)-ethyl]-1-methyl-benzimidazol-5-yl}-N-[naphth-1-ylmethyl]-N′-[4-(2-pyridyl)-amino-cyclohexyl)-urea, hydrochloride] belongs 0.031 to 1 µM; to `Cn1c(CCc2ccc(C(=N)N)cc2)nc2cc(N(Cc3cccc4ccccc34)C(=O)NC3(Cc4ccccc4)CCNCC3)ccc21` [Example 77, N-{2-[2-(4-Amidinophenyl)-ethyl]-1-methyl-benzimidazol-5-yl}-N-[naphth-1-ylmethyl]-N′-[4-(benzyl)-piperidin-4-yl)-urea, hydrochloride], 0.004 to 0.03 µM.
Regarding `CN(C)CCCN(C)C(=O)N(Cc1cccc2ccccc12)c1ccc2c(c1)nc(CCc1ccc(C(=N)N)cc1)n2C` [Example 78, N-{2-[2-(4-Amidinophenyl)-ethyl]-1-methyl-benzimidazol-5-yl}-N-[naphth-1-ylmethyl]-N′-methyl-N′-(3-dimethylamino-propyl)-urea, hydrochloride], the IC50 is 0.031 to 1 µM.
The same measure for `Cn1c(CCc2ccc(C(=N)N)cc2)nc2cc(N(Cc3cccc4ccccc34)C(=O)N3CCC(Nc4ccccn4)CC3)ccc21` [Example 79, N-{2-[2-(4-Amidinophenyl)-ethyl]-1-methyl-benzimidazol-5-yl}-N-[naphth-1-ylmethyl]-N′-[4-(2-pyridyl)-amino]-piperid-1-ine-urea, hydrochloride]: 0.031 to 1 µM; for `CN(C)CCCN(C)C(=O)Nc1ccc2c(c1)nc(CCc1ccc(C(=N)N)cc1)n2C` [Example 81, N-{2-[2-(4-Amidinophenyl)-ethyl]-1-methyl-benzimidazol-5-yl}-N′-methyl-N′-(3-dimethylaminopropyl)-urea, hydrochloride]: 0.031 to 1 µM.
`Cn1c(CCc2ccc(C(=N)N)cc2)nc2cc(NC(=O)N3CCC(Nc4ccccn4)CC3)ccc21` [Example 82, N-{2-[2-(4-Amidinophenyl)-ethyl]-1-methyl-benzimidazol-5-yl}-N′-[4-(2-pyridyl)-amino]-piperid-1-ine urea, hydrochloride]: the IC50 lay in the range of 0.031 to 1 µM.
To `CN(C(=O)CN1CCC(Nc2ccc(F)cc2Cl)CC1)c1ccc2c(c1)nc(CCc1ccc(CN)cc1)n2C` [Example 84, Ditrifluoroacetate] belongs 0.004 to 0.03 µM.
The same measure for `CN(C(=O)CN1CCC(Nc2ccc(Cl)cc2)CC1)c1ccc2c(c1)nc(CCc1ccc(C(=N)N)cc1)n2C` [Example 105, N-{2-[2-(4-Amidinophenyl)-ethyl]-1-methyl-benzimidazol-5-yl}-N-methyl-2-[4-(4-chlorophenylamino)-piperid-1-yl]-acetamide, dihydrochloride]: 0.0005 to 0.003 µM.

The values above are taken from patent US6656956B2, “Benzimidazole derivatives, processes for preparing them and their use as pharmaceutical compositions” (Boehringer Ingelheim Pharma KG, priority 2001, dated 2003).
